From patent US9556202B2, “Sulfonamide derivatives and methods of use thereof for improving the pharmacokinetics of a drug” (MERCK SHARP & DOHME CORP., priority 2012, dated 2017)

Experiments:
CYP1A2 = target: T1, CYP1A2 (Homo sapiens, UniProt P05177); experiment: Cocktail CYP inhibition assay in human liver microsomes, phenacetin O-deethylation; assay type: in vitro ADME; details: human liver microsomes 0.1 mg/mL, 10 μM phenacetin, 10 min 37° C.; test conc. up to 10 μM; unit inferred
T1 construct: 0.1 mg/mL protein human liver microsomes (BD Gentest); tissue BD Gentest; host or cells: human liver microsomes
T1 sequence (P05177 1-516): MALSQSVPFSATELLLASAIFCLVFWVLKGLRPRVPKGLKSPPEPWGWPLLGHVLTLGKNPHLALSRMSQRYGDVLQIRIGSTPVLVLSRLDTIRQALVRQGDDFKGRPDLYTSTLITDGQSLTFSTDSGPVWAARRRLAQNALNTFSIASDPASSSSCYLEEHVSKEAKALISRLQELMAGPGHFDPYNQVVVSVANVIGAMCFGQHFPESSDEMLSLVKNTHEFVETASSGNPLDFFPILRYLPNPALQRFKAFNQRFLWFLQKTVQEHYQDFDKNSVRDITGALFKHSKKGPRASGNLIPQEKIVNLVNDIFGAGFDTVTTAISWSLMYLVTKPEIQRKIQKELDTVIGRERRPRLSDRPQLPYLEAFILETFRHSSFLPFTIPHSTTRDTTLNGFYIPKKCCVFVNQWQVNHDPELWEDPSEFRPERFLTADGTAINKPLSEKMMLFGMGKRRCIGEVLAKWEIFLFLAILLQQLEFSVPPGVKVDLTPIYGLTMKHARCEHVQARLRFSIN
Experimental: (§1) Determination of IC50 in a Cocktail Assay for CYPs 1A2, 2C9, 2C19, 2D6 and 3A4
(§2) This assay was performed in a standard 96-well plate design. IC50 values were calculated from the percent inhibition observed for each test compound at 6 concentrations (for example, 0.0032, 0.016, 0.08, 0.4, 2 and 10 μM). The incubation substrate mix contains 10 μM phenacetin (1A2), 5 μM diclofenac (2C9), 30 μM mephenytoin (2C19), 5 μM dextromethorphan (2D6) and 2 μM midazolam (3A4), 0.1 mg/mL protein human liver microsomes (BD Gentest), 1 mM NAPDH, 3.3 mM MgCl2 and 100 mM potassium phosphate buffer (pH 7.4). The production of the metabolite of each probe substrate was determined after incubation for 10 min at 37° C. Quantitation of the metabolite peak area ratio against an internal standard (tolbutamide) was determined by LC/MS/MS analysis following acetonitrile treatment of the incubations.
(§3) Samples were analyzed in the MRM mode with a SCIEX API-4000 mass spectrometer (Applied Biosystems, Foster City, Calif.), with a Shimadzu LC-20 AD pump (Shimadzu corporation, Kyoto, JP) and a CTC PAL autosampler (Agilent Technologies, Switzerland). A Phenomenex, Luna, 5 μm, 100 A, 2.00×30 mm HPLC column was used for the separation. The mobile phases were: (A) 0.1% formic acid in water and (B) 0.1% formic acid in acetonitrile. The binary gradient was as follows.
(§4) The peak area ratio of the analyte to the internal standard was used to quantify the metabolite. The values of peak area ratios in the presence of test compound were compared to those of maximum or minimum controls and were expressed as % inhibition by interpolating between the maximum and minimum peak area ratios. Incubations with no inhibitor were defined as the maxima.
(§5) The following equation was used to calculate the % inhibition: [1−[(X−Low control)/(High control−Low control)]]*100
(§6) For the IC50 calculation, SigmaPlot was used to plot the mean % inhibition versus the test compound concentrations and for non-linear regression analysis of the data. […]

CYP3A4 = target: T2, CYP3A4 (Homo sapiens, UniProt P08684); experiment: IC50 vs CYP3A by inhibition of lopinavir metabolism in human liver microsomes; assay type: biochemical; details: human liver microsomes 0.01 mg/mL, 1.5 μM lopinavir, 8 min 37° C.; test conc. e.g. 0.098-100 nM; unit inferred; read-out: 3A4(LPV)
T2 construct: 0.01 mg/mL protein human liver microsomes (BD Gentest); tissue BD Gentest; host or cells: human liver microsomes
Experimental: Determination of IC50 Vs CYP3A by Measurement of Inhibition of Lopinavir Metabolism
This assay was performed in a standard 96-well plate design. IC50 values were calculated from the percent inhibition observed for each test compound at 6 concentrations (for example, 0.098, 0.391, 1.56, 6.25, 25 and 100 nM). The incubation substrate mix contains 1.5 μM lopinavir, 0.01 mg/mL protein human liver microsomes (BD Gentest), 1 mM NAPDH, 3.3 mM MgCl2 and 100 mM potassium phosphate buffer (pH 7.4). The production of the sum of three hydroxylated metabolites (M2: 6-hydroxy lopinavir, M3: 4-hydroxy lopinavir, M4: 4-hydroxy lopinavir (epimer of M3), Kumar et al., 1999) was determined after incubation for 8 min at 37° C. Quantitation of the metabolite peak area ratio against an internal standard (tolbutamide) was determined by LC/MS/MS analysis following acetonitrile treatment of the incubations.
as §3
as §4, with “maxima and with 5 μM ketoconazole were defined as the minima.” for “maxima.”
as §5
For the IC50 calculation, SigmaPlot was used to plot the mean % inhibition versus the test compound concentrations and for non-linear regression analysis of the data. Depending on the range of data points defining the inhibition curve, the data may have been fit to the 4-parameter logistic equation.

CYP2C19 = target: T3, CYP2C19 (Homo sapiens, UniProt P33261); experiment: Cocktail CYP inhibition assay in human liver microsomes, mephenytoin 4'-hydroxylation; assay type: in vitro ADME; details: human liver microsomes 0.1 mg/mL, 30 μM mephenytoin, 10 min 37° C.; unit inferred
T3 construct: 0.1 mg/mL protein human liver microsomes (BD Gentest); tissue BD Gentest; host or cells: human liver microsomes
Experimental: as §1, §2, §3, §4, §5, §6

T2 sequence (P08684 2-503): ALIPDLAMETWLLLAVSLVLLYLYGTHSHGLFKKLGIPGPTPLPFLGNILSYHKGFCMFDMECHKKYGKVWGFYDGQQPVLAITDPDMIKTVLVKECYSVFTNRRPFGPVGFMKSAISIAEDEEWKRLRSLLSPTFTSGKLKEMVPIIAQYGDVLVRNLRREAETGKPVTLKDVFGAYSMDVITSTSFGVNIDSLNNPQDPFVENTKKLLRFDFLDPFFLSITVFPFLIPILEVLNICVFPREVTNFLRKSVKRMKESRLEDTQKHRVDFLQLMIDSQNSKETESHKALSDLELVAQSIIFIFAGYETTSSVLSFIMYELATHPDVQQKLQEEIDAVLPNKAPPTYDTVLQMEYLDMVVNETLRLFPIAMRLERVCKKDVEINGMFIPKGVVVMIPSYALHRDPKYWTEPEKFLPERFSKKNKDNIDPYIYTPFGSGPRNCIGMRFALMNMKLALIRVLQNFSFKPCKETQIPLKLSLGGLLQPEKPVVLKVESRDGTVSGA
T3 sequence (P33261 whole entry): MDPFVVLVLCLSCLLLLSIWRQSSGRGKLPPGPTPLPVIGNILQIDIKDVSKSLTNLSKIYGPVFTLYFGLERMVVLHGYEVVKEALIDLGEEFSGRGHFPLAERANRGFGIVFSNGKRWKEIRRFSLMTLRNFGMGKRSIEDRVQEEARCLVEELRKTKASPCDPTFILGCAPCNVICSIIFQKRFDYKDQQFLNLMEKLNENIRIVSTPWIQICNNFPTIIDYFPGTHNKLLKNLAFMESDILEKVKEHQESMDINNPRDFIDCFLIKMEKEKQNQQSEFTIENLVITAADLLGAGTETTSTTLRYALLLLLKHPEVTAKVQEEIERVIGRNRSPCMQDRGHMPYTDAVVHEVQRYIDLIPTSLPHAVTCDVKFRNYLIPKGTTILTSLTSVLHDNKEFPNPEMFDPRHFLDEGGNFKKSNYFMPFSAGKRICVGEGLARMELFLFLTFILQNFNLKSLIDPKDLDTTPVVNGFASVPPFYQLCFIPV

Row | IC50 (CYP1A2) [µM] | IC50 (CYP3A4) [µM] | IC50 (CYP2C19) [µM] | SMILES
1 | > 10 | 0.0038 | > 10 | COCC(c1cncn1[C@H](C)c1ccc(F)cc1)N1CCN(S(=O)(=O)c2cnc(N3CCN(C)CC3)s2)CC1 (single isomer, unassigned) [Compound 35]
2 | > 10 | 0.0043 | > 10 | COCCC(c1cncn1[C@H](C)c1ccc(F)cc1)N1CCN(S(=O)(=O)c2cnc(N3CCN(C)CC3)s2)CC1 (single isomer, unassigned) [Compound 36]
3 | > 10 | 0.0025 | 4.18 | C[C@H](c1ccc(F)cc1)n1cncc1C1CCCC2CN(S(=O)(=O)c3cnc(Nc4ccccn4)s3)CCN21 (single isomer, unassigned) [Compound 38]
